Results from patent US9078890B2, “Use of koumine and its homologues in preparation of medicament for treatment of autoimmune diseases of involved bones and joints” (priority 2011, dated 2015).

Assays:
[1] = system: type II collagen-induced arthritis rat; assay: Type II collagen-induced arthritis rat: joint pathological change, HE staining and pathological score; type: in vivo, Wistar rat; conditions: koumine 0.6, 3, 15 mg/kg intragastric; 10 days after intervention
Method: (§1) Under aseptic conditions, 10 mg chicken type II collagen protein was fully mixed with 5 ml 10 mM glacial acetic acid solution, and stirred overnight in refrigerator at 4° C. to fully dissolve it. It was mixed with complete Freund's adjuvant in equal volume in ice bath to fully emulsify into an emulsion with a collagen concentration of 1 mg/ml.
(§2) Wistar rats are divided into a modeling group and a false modeling group. After the modeling group rats were narcotized with intraperitoneal injection of pentobarbital, the above emulsion was injected intracutaneously at 3 to 4 positions at back, tail root or the like, 0.3 ml for each, an primary immunity was carried out. After 7 days, a secondary immunity was carried out, the emulsifying agent complete Freund's adjuvant of initial immunity was replaced with incomplete Freund's adjuvant, 0.1 ml the emulsion was injected under sevoflurane inhalation anesthesia wherein the injection position is different from the last time. In false modeling group, the emulsion was replaced with solvent glacial acetic acid solution. […]
The rats of each group were killed 10 days after intervention, the ankle joints of left hind limbs were picked off to conduct HE staining, and the pathological change was observed and scored. […]

[2] = system: type II collagen-induced arthritis rat; assay: Type II collagen-induced arthritis rat: condition and body weight; type: in vivo, Wistar rat; conditions: for Body weight before intervention: from Day 21 after modeling for 10 days
Method: as §1
(§3) Wistar rats are divided into a modeling group and a false modeling group. After the modeling group rats were narcotized with intraperitoneal injection of pentobarbital, the above emulsion was injected intracutaneously at 3 to 4 positions at back, tail root or the like, 0.3 ml for each, an primary immunity was carried out. After 7 days, a secondary immunity was carried out, the emulsifying agent complete Freund's adjuvant of initial immunity was replaced with incomplete Freund's adjuvant, 0.1 ml the emulsion was injected under sevoflurane inhalation anesthesia wherein the injection position is different from the last time. In false modeling group, the emulsion was replaced with solvent glacial acetic acid solution.
Successfully modeled rat in the modeling group were randomly divide into 5 groups: low, middle, high-dose koumine treatment group, positive control group, negative control group, 10 rats for each group. Beginning from Day 21 after modeling, corresponding intervention was carried out as following in 10 days continuously: 0.6, 3, 15 mg/kg koumine were intragastrically administrated to the low, middle, high-dose koumine treatment group respectively, 1 time every day; 1 mg/kg amethopterin was administrated to the positive control group, 1 time every 3 days, equal volume of physiological saline was administrated for the remained days; equal volume of physiological saline was administrated to the negative control group.

[3] = system: serum type II collagen antibody; assay: Type II collagen-induced arthritis rat: serum type II collagen antibody (ELISA); type: in vivo, Wistar rat; conditions: koumine 0.6, 3, 15 mg/kg intragastric once daily 10 days; after intervention finished; dose dependent
Method: as §1, §3
(§4) Successfully modeled rat in the modeling group were randomly divide into 5 groups: low, middle, high-dose koumine treatment group, positive control group, negative control group, 10 rats for each group. […]

adjuvant arthritis mice [4] = assay: Adjuvant arthritis mice: joint pathology damage (HE staining); type: in vivo, Kunming mice; conditions: koumine 0.8, 4, 20 mg/kg intragastric; Day 19; dose dependent
Method: (§5) BCG was inactivated in water bath at 80° C., and fully emulsified along with complete Freund's adjuvant to form complete Freund's adjuvant emulsion containing 5 mg/ml BCG, preserved at 4° C., and shake well before use. The Kunming mice were divided into a modeling group and a false modeling group. According to the method recited in the literature [Rasool M, Sabina E P, Lavanya B. Anti-inflammatory effect of Spirulina fusiformis on adjuvant-induced arthritis in mice. Biol Pharm Bull. 2006, 29(12):2483-7], for the modeling group, the model was prepared by intradermal injection of 20 ul the emulsion under the plantar surface of right paws after the mice was narcotized; for the false modeling group, the emulsion was replaced with physiological saline. For the modeling group, the animals were screened on Day 8 after injection: the mice with the injected paw thickness increased >0.5 mm and thermal hyperalgesia occurred (paw thermal withdrawal latency <8 second) were selected as experimental subjects. The selected mice were divided into 5 groups randomly: low, middle, high dose treatment group (0.8, 4, 20 mg/kg); indomethacin positive control group (10 mg/kg); negative control group (physiological saline), each comprising 12 animals. […]

[5] = system: type II collagen-induced arthritis rat; assay: Type II collagen-induced arthritis rat: paw swelling degree and arthritis index; type: in vivo, Wistar rat; conditions: koumine 0.6, 3, 15 mg/kg intragastric; Day 5, Day 10 of intervention; dose dependent
Method: as §1, §3, §4

in vivo = conditions: mouse, sc
[6] = system: type II collagen-induced arthritis rat; assay: Type II collagen-induced arthritis rat: mechanical hyperalgesia (Von-frey mechanical pain threshold); type: in vivo, Wistar rat; conditions: koumine 0.6, 3, 15 mg/kg intragastric; dose-effect relationship
Method: as §1
as §2, with “time.” for “time. In false modeling group, the emulsion was replaced with solvent glacial acetic acid solution.”
1 hour after intragastric administration, the thermal withdrawal latency of each group was determined by the photo-thermal dolorimeter; the mechanical pain threshold of rats of each group was determined by Von-frey electromechanical pain threshold detector, thus the condition of thermal hyperalgesia and mechanical hyperalgesia of rats of each group was observed.

adjuvant arthritis mice [7] = assay: Adjuvant arthritis mice: phlogogenic paw swelling (paw thickness); type: in vivo, Kunming mice; conditions: koumine 0.8, 4, 20 mg/kg intragastric once daily; Day 4-18 after inflammation
Method: as §5, with “subjects.” for “subjects. The selected mice were divided into 5 groups randomly: low, middle, high dose treatment group (0.8, 4, 20 mg/kg); indomethacin positive control group (10 mg/kg); negative control group (physiological saline), each comprising 12 animals.”
According to Methodology of Pharmacological Experiment (Shuyun Xu, Rulian Bian: Methodology of Pharmacological Experiment [M], 3rd Ed., People's Medical Publishing House: 912-913), paw thickness was selected as a paw swelling index and was measured using vernier caliper, measuring timing is the same as above, each measurement repeats 3 times and the average was taken (similarly hereinafter).

[8] = koumine 0.6 mg/kg intragastric once daily from Day 21
[9] = koumine 3 mg/kg intragastric once daily from Day 21
[10] = koumine 15 mg/kg intragastric once daily from Day 21

## C=CC12CN(C)C3CC14C(=Nc1ccccc14)C1CC2C3CO1 (stereo not shown) [Koumine]
[1]
  Scores of pathologic change degree of ankle joints, HE staining (FIGS. 9 and 10): significantly decrease the scores of pathologic change degree of ankle joints
[2]; [8]
  Body weight after intervention, Day 7: 154.6 ± 7.20 g
  Body weight after intervention, Day 14: 173.1 ± 7.93 g
  Body weight after intervention, Day 21: 194.1 ± 16.67 g
  Body weight after intervention, Day 31: 235.8 ± 5.00 g
[2]; koumine 0.6 mg/kg intragastric once daily
  Body weight before intervention: 129.9 ± 8.60 g
[2]; [9]
  Body weight after intervention, Day 7: 145.1 ± 9.24 g
  Body weight after intervention, Day 14: 173.7 ± 4.84 g
  Body weight after intervention, Day 21: 202.3 ± 9.57 g
  Body weight after intervention, Day 31: 240.2 ± 6.85 g
[2]; koumine 3 mg/kg intragastric once daily
  Body weight before intervention: 126.5 ± 7.92 g
[2]; [10]
  Body weight after intervention, Day 7: 148.7 ± 8.73 g
  Body weight after intervention, Day 14: 176.9 ± 3.86 g
  Body weight after intervention, Day 21: 205.1 ± 6.94 g
  Body weight after intervention, Day 31: 260.3 ± 11.79 g
[2]; koumine 15 mg/kg intragastric once daily
  Body weight before intervention: 127.8 ± 7.45 g
[2]; koumine 0.6, 3, 15 mg/kg intragastric once daily
  Condition of rats (food intake, activity, fur, emaciation): can be improved in a dose dependent manner
[2]; koumine 0.6, 3, 15 mg/kg intragastric, robustness-promoting effect on high-dose group
  Effect on body weight of type II collagen-induced arthritis rats (summary of Table 2): antagonistic effect on body weight reducing
[3]
  Effect on serum type II collagen antibody level (FIG. 5): significantly antagonistic effect on type II collagen antibody level increase
Adjuvant arthritis mice [4]
  Effect on joint pathology damage, HE staining (FIG. 3): can improve the inflammatory cell infiltration, synovial hyperplasia, bone destruction
[5]
  Effect on arthritis index (FIG. 7): reduces arthritis index
  Effect on paw swelling, paw volume (FIG. 6): relieves the paw swelling
In vivo
  LD50: 99 mg/kg
[6]
  Effect on mechanical pain threshold (summary of Table 4): improve mechanical pain threshold
Adjuvant arthritis mice [7]
  Effect on phlogogenic paw thickness (FIG. 2): reduces the phlogogenic paw thickness of adjuvant arthritis mice in dose and time-dependent manner
